The text below walks through data of patent US20260216107A1, “INTERLEUKIN-6 (IL-6)/SIGNAL TRANSDUCER AND ACTIVATOR OF TRANSCRIPTION 3 (STAT3) PATHWAY INHIBITORS FOR USE IN THE TREATMENT OF GRANULOMATOUS DISEASES” (UCL BUSINESS LTD, priority 2023, published 2026).

For one assay, the system named is THP1 monocytes. Kind of assay: PR3-stimulated giant cell formation in THP1 monocytes matured to macrophages. It is filed as cell-based. As to conditions: PMA 24 hours, PR3 10 mcg/ml 72 hours, with or without Stattic; FIG. 19. As to the method: An in vitro model of granulomatous disease was created using THP1 monocytes. The THP1 monocytes were matured to macrophages by the addition of PMA for 24 hours and then stimulated with PR3 at 10 mcg/ml for 72 hours in the presence or absence of Stattic, a STAT3 inhibitor. MGC formation was assessed as before by calculating the fusion index.

Another assay relates to IL-6. The experiment in a line: IL-6 levels in zebrafish model of granulomatous disease. The settings on record: PR3 zebrafish model, niclosamide via fish tank water. It is filed as in vivo. The source says: An in vivo model of granulomatous disease in zebrafish was developed by administering PR3 to the fish.
A further assay has as its system macrophage aggregation. The experiment in a line: PR3-induced macrophage aggregation / MGC formation in zebrafish embryos, niclosamide added to fish water. In kind it is in vivo. As to conditions: for Median aggregate volume: PR3-injected zebrafish, PR3 alone 106969 (41031-465184). As to the method: The injection of intact or HI PR3 into the zebrafish was repeated in the presence or absence of the IL-6/STAT3 inhibitor niclosamide, which was added to the fish water at different concentrations (0.01-0.3 μmol/l) (FIG. 11B, C). […] Median aggregate volume PR3 vs PR3 and niclosamide 0.3, 0.15. 0.05. 0.01 μmol/ml respectively 106969 (41031-465184), 42730 (25638-324957), 44501 (26861-90354), 63043 (27395-205060), 117473 (35128-245781) (p<0.05 PR3 vs 0.3 and 0.05, p<0.001 PR3 vs 0.15 μmol/l; one way ANOVA).
In Vivo Effect of PR3 on MGC Formation and the Ability of Niclosamide to Reduce MGC Formation In order to understand granuloma formation in vivo, a zebrafish embryo model was developed. Transgenic macrophage reporter zebrafish {Tg (MPEg: cherry)} embryos at 24 hpf, were injected into the yolk sac with human PR3 or Albumin at 1 or 5 […], either untreated or following heat inactivation. Embryos were imaged at 120 hpf with lightsheet microscopy showing volumes of fused macrophages according to the colour scale (see FIG. 8A-D). […] Median (IQR) aggregate volumes were HI albumin 5 pg/ml 22713 μm^3 (19918-31486) and HI PR3 5 pg/ml 31571 μm^3 (23137-49647) (p<0.001, one way ANOVA). In subsequent experiments, the injection of intact or HI PR3 was repeated in the presence or absence of the IL-6-STAT3 inhibitor niclosamide, added to the fish water at different concentrations (0.01-0.3 μmol/l) (see FIG. 8F-G). […] Median aggregate volume PR3 vs PR3 and niclosamide 0.3, 0.15. 0.05. 0.01 μmol/ml respectively 106969 (41031-465184), 42730 (25638-324957), 44501 (26861-90354), 63043 (27395-205060), 117473 (35128-245781) (p<0.05 PR3 vs 0.3 and 0.05, p<0.001 PR3 vs 0.15 μmol/l; one way ANOVA).
In Vivo Danio rerio Model All animal experimental protocols were approved by University College London's Animal Welfare and Ethical Review Body (AWERB) and licensed by the UK Home Office. All experiments were performed in accordance with relevant guidelines and regulations as described in UK Home Office Project License (PPL 70/8365) awarded to Dr Paul Frankel. The Transgeneic Tg (mpeg: GFP) line was kindly provided by Professor Maggie Dallman (Imperial College London, UK). Zebrafish were maintained in mixed-sex populations at 28° C. with a 14 h: 10 h light: dark cycle from 9 am-[…] and within internationally agreed environmental parameters regarding water quality and composition. Following dechorionation and anaesthesia with tricaine (0.2 mg/ml), embryos were microinjected into the yolk sac with 5 pg/mL of PR3, heat inactivated PR3, or albumin and incubated in 10 cm Petri dishes at 28.5° C. After 5 days, living embryos were anaesthetised with tricaine (0.2 mg/ml) and embedded in 2% agarose for 3-dimensional confocal microscopy using a Ziess camera at ×200 magnification to determine macrophage fusion. Z-stacks were analysed using Imaris software version 9.2. Images were 3D rendered and aggregate volumes measured by automated thresholds.

The next assay has as its system GPA patients' monocytes. The experiment in a line: PR3-stimulated MGC formation (fusion index) in GPA patients' monocytes. In kind it is cell-based, human. As to conditions: cultured monocytes; Tocilizumab 10 μg/mL.

“Also recorded” adds a separate entry of the source.

`O=[N+]([O-])c1ccc2c(c1)S(=O)(=O)C=C2` [Stattic]: the “giant cell formation index” value in the assay with THP1 monocytes is “significant decrease; also recorded: lower giant cell formation index”.

As for `O=C(Nc1ccc([N+](=O)[O-])cc1Cl)c1cc(Cl)ccc1O` [niclosamide, Niclosamide], the IL-6 levels result with IL-6 is recorded as “reduce IL-6 levels”. Besides, in the assay on macrophage aggregation (FIG. 8F, G, 0.3, 0.15 and 0.05 μmol/ml niclosamide compared to PR3 alone), the “aggregate volume and number” value was “reduction in aggregate volume and number”. The Median aggregate volume in the assay on macrophage aggregation (niclosamide 0.01 μmol/l in fish water) was 117473 (35128-245781) μm^3; with macrophage aggregation (niclosamide 0.05 μmol/l in fish water, p<0.05), 63043 (27395-205060) μm^3; in the assay on macrophage aggregation (niclosamide 0.15 μmol/l in fish water, p<0.001) it was 44501 (26861-90354) μm^3; in the assay on macrophage aggregation (niclosamide 0.3 μmol/l in fish water, p<0.05), 42730 (25638-324957) μm^3. Further, the granuloma formation result in the assay with macrophage aggregation (PR3 zebrafish model, niclosamide via fish tank water) is recorded as “significantly inhibit granuloma formation”. The macrophage aggregation entry in the assay on macrophage aggregation (after injection of enzymatically active or inactive PR3 into the yolk sac) is recorded as “significantly attenuated”. The MGC formation result with macrophage aggregation (zebrafish injected with intact or HI PR3, niclosamide 0.01-0.3 μmol/l in fish water, vs PR3 alone) is “significantly less MGC formation”. In the assay on macrophage aggregation (zebrafish injected with intact or HI PR3, niclosamide in fish water), the “concentration at which the reduction of MGC formation was maximal” value is 0.15 µmol/mL.

In the case of “Tocilizumab: humanised IgG1 monoclonal antibody against the human interleukin-6 (IL-6) receptor (RoActerma, Roche, UK)”, in the assay on GPA patients' monocytes, the granuloma formation entry is “reduced granuloma formation”.
